The source of these data is patent publication US6765011B2, “7-heterocyclyl quinoline and thieno[2,3-b]pyridine derivatives useful as antagonists of gonadotropin releasing hormone” (Ortho-McNeil Pharmaceutical, Inc., priority 2000, dated 2004).

Each structure is given as a SMILES string. Where a name gives a salt, the structure may show the parent alone.

Assay [1] concerns the target T1, GnRHR (Hek 293 cells with the GnRHR gene) (Homo sapiens, UniProt P30968).
T1 construct: expressed in transfected cells; host or cells: HEK 293 cells carrying the GnRHR gene, transfected with an hCG promoter-luciferase reporter
T1 sequence (P30968 1-328): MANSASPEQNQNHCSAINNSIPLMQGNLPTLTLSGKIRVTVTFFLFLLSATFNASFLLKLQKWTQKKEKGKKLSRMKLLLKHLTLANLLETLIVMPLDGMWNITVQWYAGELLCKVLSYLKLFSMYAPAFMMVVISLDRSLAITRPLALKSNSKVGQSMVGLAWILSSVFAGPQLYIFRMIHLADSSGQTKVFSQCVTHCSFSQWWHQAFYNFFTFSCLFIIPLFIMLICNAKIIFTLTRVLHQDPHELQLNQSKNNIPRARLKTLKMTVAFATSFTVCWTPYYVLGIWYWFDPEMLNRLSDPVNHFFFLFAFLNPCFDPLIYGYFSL
The assay can be described thus: LUCIFERASE Assay for GnRH (hCG promoter luciferase reporter). It is filed as cell-based. The conditions noted are these: antagonist format, against 0.6 nM Histrelin. The method, then:
LUCIFERASE Assay for GnRH
Hek 293 cells with the GnRHR gene were transfected with the hCG promoter and the luciferase reporter system. On day 1, the cells were plated at a density of 80,000 cells per well on a Poly-D-lysine pre-coated 96 well plate. The plates were incubated at 37° C. for 24 hours. On day 2, the spent media was decanted and replaced with fresh media. Test compounds, standard and controls were added to individual wells. All the dilutions were done in 7.5% DMSO/(αMEM media. The assay was run in both agonist and antagonist format. For the antagonist format, the assay measurements were run against a standard of 0.6 nM Histrelin. On day 3, the levels of luciferase production were measured in a chemiluminescence assay using Enhanced Luciferase Assay Kit. The results were expressed as % Inhibition using the following formula: […]
RLU Relative Light Units, a measure of chemiluminescence
Agonist [RLU value(test compound)−(Background/0.6 nM Histrelin)−Background]*100
Antagonist (1−[(RLU value−(Background/0.6 nM Histrelin)−Background)*100])
The calculated percentages were plotted on a graph using Graph Pad Prizm and the IC50/EC50 values determined.
For orientation: A reporter such as luciferase makes a cellular process visible.

Assay [2] deals with T2, membrane-bound GnRH receptor (Rattus norvegicus, UniProt P30969).
T2 construct: from tissue; host or cells: rat pituitary homogenate (female and male, equal mixture)
T2 sequence (P30969 1-327): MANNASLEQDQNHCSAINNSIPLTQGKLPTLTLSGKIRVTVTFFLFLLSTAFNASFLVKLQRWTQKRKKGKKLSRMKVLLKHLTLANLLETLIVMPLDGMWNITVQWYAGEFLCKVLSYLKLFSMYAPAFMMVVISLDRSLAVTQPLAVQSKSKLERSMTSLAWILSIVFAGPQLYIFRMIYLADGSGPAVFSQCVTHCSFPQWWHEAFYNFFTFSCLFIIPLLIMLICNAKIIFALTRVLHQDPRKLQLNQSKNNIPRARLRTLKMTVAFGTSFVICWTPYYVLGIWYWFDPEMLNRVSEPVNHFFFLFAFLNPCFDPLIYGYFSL
The assay can be described thus: GnRH Receptor Binding Assay ([125I]-histrelin competition, rat pituitary homogenate). The conditions noted are these: [125I]-histrelin displacement, female and male rat pituitary homogenate; values without parentheses = IC50; read-out: Binding, IC50 (B % @ 30 μM). The text has this: GnRH Receptor Binding Assay
A homogenate prepared from an equal mixture of female and male rat pituitaries was used as the source of the membrane-bound GnRH receptor. The receptor was allowed to interact in solution with [^125I]-histrelin alone or in combination with a competitive ligand (the compound being tested). The bound radiolabeled ligand was separated from the free (unbound) radiolabeled ligand by filtration through glass filter mats using a 96-well plate harvesting system (Tomtec Mach II 96). In the absence of a competitive ligand, a maximum amount of radiolabeled ligand is bound to the receptor and trapped by the glass filter mats. […] The amount of receptor-bound [^125I]-histrelin on the filter mat was determined using a Wallac Betaplate™ Liquid Scintillation Counter. Binding was determined as follows:
B0 maximum concentration of compound
Average NSB: (NSB1+NSB2)/2
Corrected B0: Average B0−Average NSB
% inhibition of Corrected B0 (or maximum response) was calculated as follows:
% Inhibition=100−[((Actual counts per minute−Average NSB)/Corrected B0)*100]

In assay [3] the test system is rat anterior pituitary cells. The assay can be described thus: Primary Pituitary Cell Culture Assay (luteinizing hormone in media after 1 nM GnRH). It is filed as cell-based. Particulars: inhibition of luteinizing hormone release, male rat primary pituitary cells. Here is the method: Primary Pituitary Cell Culture Assay
Male rats (between immature and adult) were sacrificed and the anterior pituitaries were collected from them. The pituitaries were dissociated and the cells were plated at a concentration of 0.33×10^6 cells/well on day 1. On day 3 the media on the cells was flushed and replaced with fresh media. The test compound was then added to the plated cells at a concentration ranging from 1 nM to 1000 nM. The plates were incubated at 37° C. at 5% CO2 for 2 days. On Day 5 the media was flushed again and replaced with fresh media. To the plates were then added test compound and 1 nM GnRH. The cells were incubated for 4 hours, the media was collected by centrifuging the plates at 1200 rpm Sorvall RT7 for 10 minutes, 900 μL of supernatant was pipetted from each well and dispensed to a 96 well plate. The deep well plates were covered and stored at […] for a day. The plates are then evaluated by ELISA ([…]) to determine the concentration of lutenizing hormone in the media. The assay was repeated at varying concentrations of the test compounds to determine IC50 values. The IC50 value is defined as the concentration of test compound at which 50% inhibition was achieved.

For `CCOC(=O)c1cn(Cc2c(F)cccc2F)c2cc(-c3ccsc3)c(CN(C)Cc3ccccc3)cc2c1=O` [Compound 1, 6-(N-Benzyl-N-methylaminomethyl)-7-(thien-3-yl)-1-(2,6-difluorobenzyl)-1,4-dihydro-4-oxoquinoline-3-carboxylic Acid Ethyl Ester], the IC50 – broadly, the concentration at which inhibition is half-maximal – in assay [1] worked out at 10 µM; in assay [2], 32 µM.

On to `CCOC(=O)c1cn(Cc2c(F)cccc2F)c2cc(-c3cc4ccccc4o3)c(CN(C)Cc3ccccc3)cc2c1=O` [Compound 2, 6-(N-Benzyl-N-methylaminomethyl)-7-(benzofuran-2-yl)-1-(2,6-difluorobenzyl)-1,4-dihydro-4-oxoquinoline-3-carboxylic Acid Ethylester], for which the IC50 in assay [3] is 2.43 µM; in assay [1], 3.26 µM.

Regarding `CN(Cc1ccccc1)Cc1cc2c3n[nH]c(=O)c-3cn(Cc3c(F)cccc3F)c2cc1Br` [Compound 3, 2,5-Dihydro-7-bromo-8-[[methyl(phenylmethyl)amino]methyl]-5-[(2,6-difluorophenyl)methyl]-3H-pyrazolo[4,3-c]quinolin-3-one], the IC50 in assay [2] is 16 µM.

On to `CN(Cc1ccccc1)Cc1cc2c3n[nH]c(=O)c-3cn(Cc3c(F)cccc3F)c2cc1-c1cc2ccccc2o1` [Compound 4, 2,5-Dihydro-7-(benzofuran-2-yl)-8-[[methyl(phenylmethyl)amino]methyl]-5-[(2,6-difluorophenyl)methyl]-3H-pyrazolo[4,3-c]quinolin-3-one], for which, in assay [2], the 50% inhibitory concentration (IC50) stood at 1 µM.

Consider `CN(Cc1ccccc1)Cc1cc2c3nnc(OCc4ccccc4)c-3cn(Cc3c(F)cccc3F)c2cc1-c1cc2ccccc2o1` [Compound 5, 7-(Benzofuran-2-yl)-3-[(phenylmethyl)oxy]-5-[(2,6-difluorophenyl)methyl]-8-[[methyl(phenylmethyl)amino]methyl]-5H-pyrazolo[4,3-c]quinoline], for which the IC50 in assay [2] worked out at 5 µM.

For `CCOc1nnc2c3cc(CN(C)Cc4ccccc4)c(-c4cc5ccccc5o4)cc3n(Cc3c(F)cccc3F)cc1-2` [Compound 6, 7-(Benzofuran-2-yl)-3-ethoxy-5-[(2,6-difluorophenyl)methyl]-8-[[methyl(phenylmethyl)amino]methyl]-5H-pyrazolo[4,3-c]quinoline HCl], in assay [2], the IC50 was 5 µM.

Consider `COc1ccc(-c2sc3c(c2CN(C)Cc2ccccc2)c(=O)c(C(=O)NN)cn3Cc2ccccc2OC)cc1` [Compound 7, 4,7-Dihydro-2-(4-methoxyphenyl)-7-[(2-methoxyphenyl)methyl]-3-[[methyl(phenylmethyl)amino]methyl]-4-oxo-thieno[2,3-b]pyridine-5-carboxylic Acid, Hydrazide bis-Hydrochloride], for which the IC50 in assay [3] amounted to 1.48 µM; in assay [2] it was 1.6 µM.

On to `COc1ccc(-c2sc3c(c4n[nH]c(=O)c-4cn3Cc3ccccc3OC)c2CN(C)Cc2ccccc2)cc1` [Compound 8, 2,5-Dihydro-7-(4-methoxyphenyl)-5-[(2-methoxyphenyl)methyl]-8-[[methyl(phenylmethyl)amino]methyl]-3H-pyrazolo[3,4-d]thieno[2,3-b]pyridin-3-one], for which the IC50 in assay [2] turned out to be 30 µM.
